Experiments:
[1] = system: Isolated bladder smooth muscle strips; assay: Bladder strip contractility (bradykinin-induced contraction), Examples I and II; assay type: cell-based, rat
PGE2 = conditions: 10 μM perfusion 60 min then saline 30 min; bladders harvested at 90 min
[2] = system: overactive bladder function; assay: Acetic-acid overactive bladder model, intravesical local delivery, cystometry, Example V; conditions: 0.2% acetic acid
Procedure: In this model, acute inflammation of the bladder is produced by using 0.2% acetic acid in saline as the bladder perfusion fluid and cystometry under anesthesia is performed after a recovery period from the surgical procedure.
The animals were anesthesized and bladder catheters were surgically implanted to allow irrigation of the test agents. The following cystometry parameters were monitored: intercontraction interval (ICI), trigger pressure (TP), micturition pressure (MP) and micturition volume (MV) using a Med Associates Cystometry Station and software program. […] Following the saline period, the rat bladder was infused with test agent in saline containing 0.2% acetic acid for 20 min followed by the collection of 7 representative ICI intervals for analysis.
Five to seven animals were normally tested in each group. Acidified saline served as the control. All infusion solutions were prepared fresh on the day of the experiment before use.

urinary bladder = assay: In vivo rat cystometry model, 0.2% acetic acid infusion, intravenous drug; conditions: 10 mg/kg i.v.
Procedure: The rats were anesthetized with urethane at 1.2 g/kg i.p. in 5 ml/kg. A polyethylene catheter (PE50) was implanted into the bladder for saline or acetic acid infusion through a 3-way stopcock. A pressure transducer was connected for measurements of intravesical pressure. Warm (37° C.) saline was infused into the bladder at a constant rate of […] (1 ml/hour) until cystometry became stable (no less than 60 minutes). Thereafter, 0.2% acetic acid was infused into the urinary bladder. Aspirin (10 mg/kg i.v.) and vehicle were administered intravenously via a PE-10 catheter in the femoral vein at 5 minutes after infusion of acetic acid was started and at the end of first micturition cycle. Dunnett's test was applied for comparison between the time before and after test substance or vehicle treatment. To ascertain differences between the test substance and the vehicle control group, an unpaired Student's t test was used. Differences are considered significant at […].

Compound: CC(C(=O)O)c1cccc(C(=O)c2ccccc2)c1 (stereo not drawn) [Ketoprofen, 3-benzoyl-α-methylbenzeneacetic acid]
- effect on maximal tension ([1]; ketoprofen 0.25-10 μM): no apparent effect
- bladder tissue PGE2 levels (PGE2): 83±22 pg/mg protein

Compound: COC(=O)C1=C(C)NC(C)=C(C(=O)OC)C1c1ccccc1[N+](=O)[O-] [Nifedipine, 1,4-dihydro-2,6-dimethyl-4-(2-nitrophenyl)-3,5-pyridinedicarboxylic acid dimethyl ester]
- concentration of maximal effects on shortening of the ICI ([2]; in irrigation buffer, female rats): ~1 µM
- ICI plateau at higher concentrations, of baseline ([2]; nifedipine above 1 μM): approximately 75%
- type of antagonism upon bradykinin-induced contractile responses ([1]; single agents, 10 min incubation): noncompetitive

Compound: CC(=O)Oc1ccccc1C(=O)O [aspirin]
- bladder capacity (urinary bladder): parallel changes
- effect on acetic acid induced reduction in the intercontraction interval (ICI) (urinary bladder): gradual time-dependent inhibition
- micturition pressure (urinary bladder): not affected
- threshold pressure (urinary bladder): not affected
